Data set [1] in a line: Solubility of CS in water. Type of data set: physicochemical. To be noted: room temperature, sterile, distilled water. An excerpt:
In accordance with the present invention, the unit dose of CS administered to the patient is at least 250 mgs. More desirably, the unit dose of CS is at least 300 mgs. Preferably, the unit dose is at least 350 mgs. More preferably, the unit dose is at least 400 mgs. The upper end of the acceptable unit dose is capped, in theory, only by the solubility of the given type of CS in the chosen aqueous vehicle, and by the volume of that vehicle used in therapy. At room temperature and in sterile, distilled water, the solubility of CS approaches 50%. Thus, the upper limit of the CS unit dose can be 500 mgs/mL of vehicle. In accordance with the present invention, the unit dose of CS is desirably formulated in a solution volume that is sufficient to expose the bladder surface to be treated, and is at least tolerable and more desirably comfortable for the patient. The upper limit for such volumes lies below the volume causing hydrodistention, which is about 250 mL in some patients. For adult patients, solution volumes are suitably from about 5 mL or 10 mL up to about 100 mL, e.g. up to about 75 mL, and preferably up to about 50 mL. In a specific embodiment of the invention, a solution volume of about 40 mL is utilized. Accordingly, the upper limit of the unit dose of CS administrable to the patient at this volume can approach 20,000 mgs.

For data set [2], the system named is patients diagnosed with cystitis. To be noted: 80 mgs and up to 200 mgs as a 40 mL instillation; cited from earlier work.

Regarding chondroitin sulfate [CS], the solubility result in data set [1] is given as “about 50%”. The “relief of symptoms including frequency, pain and urgency” value in data set [2] is “provided relief from at least one symptom”.

The values above are taken from patent US7772210B2, “Cystitis treatment with high dose chondroitin sulfate” (Stellar Pharmaceuticals Inc., priority 2004, dated 2010).
